Assay results published in patent US20230114728A1 (Venatorx Pharmaceuticals, Inc., priority 2019, published 2023).
In brackets after ≈: the same amount, converted by molar mass. Like-named read-outs stand apart in the source and are kept apart here.

Tests used:
Assay in all cases: Broth microdilution MIC in CAMHB
Format in all cases: cell-based
[1] = tested on: E. coli AG100; conditions: Escherichia coli
Procedure, shortened: (§1)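 Colonies from cation-adjusted Mueller Hinton agar are grown in broth (3-5 h, 37° C), adjusted by OD600, and added at 2-8×10^5 CFU/mL to 2-fold compound dilutions. After 16-20 h at 37° C, the lowest concentration without growth is taken as MIC.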

[2] = tested on: K. pneumoniae UMM producing SHV-5 and KPC-2; conditions: Klebsiella pneumoniae, read-out: Minimum Inhibitory Concentration, K. pneumoniae UMM
Procedure, shortened: as §1

[3] = tested on: P. aeruginosa ATCC 35151; conditions: Pseudomonas aeruginosa
Procedure, shortened: as §1

[4] = tested on: K. pneumoniae SI-117 producing VIM-1; conditions: Klebsiella pneumoniae, read-out: Minimum Inhibitory Concentration, K. pneumoniae SI-117
Procedure, shortened: as §1

[5] = tested on: P. aeruginosa (ΔmexAB-oprM); conditions: Pseudomonas aeruginosa, read-out: Minimum Inhibitory Concentration, P. aeruginosa ΔmexAB-OprM
Procedure, shortened: as §1

[6] = tested on: P. aeruginosa ATCC 27853; conditions: Pseudomonas aeruginosa
Procedure, shortened: as §1

[7] = tested on: E. coli ATCC 25922; conditions: Escherichia coli
Procedure, shortened: as §1

[8] = tested on: K. pneumoniae 848844 producing SHV-11 and KPC-2; conditions: Klebsiella pneumoniae, read-out: Minimum Inhibitory Concentration, K. pneumoniae 848844
Procedure, shortened: as §1

[9] = tested on: E. coli D22; conditions: Escherichia coli
Procedure, shortened: as §1

[10] = tested on: E. coli 901C; conditions: Escherichia coli, read-out: Minimum Inhibitory Concentration, E. coli 901C
Procedure, shortened: as §1

[11] = tested on: A. baumannii ATCC 19606; conditions: Acinetobacter baumannii
Procedure, shortened: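 Hyper-permeable or efflux-deficient strains serve to probe outer-membrane penetration. Growth inhibition is scored visually after 16-20 h at 37° C in CAMHB, starting from 2-8×10^5 CFU/mL.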

[12] = tested on: E. coli AG100A; conditions: Escherichia coli, read-out: Minimum Inhibitory Concentration, E. coli AG100A
Procedure, shortened: as §1

[13] = E. coli AG100 (wild-type parent), MHB, read-out: Minimum Inhibitory Concentration, E. coli AG100
[14] = ATCC35151, MHB, hyper-permeable strain, read-out: Minimum Inhibitory Concentration, P. aeruginosa ATCC 35151
[15] = ATCC27853, MHB, read-out: Minimum Inhibitory Concentration, P. aeruginosa ATCC 27853
[16] = ATCC25922, E. coli ATCC 25922, MHB, read-out: Minimum Inhibitory Concentration, E. coli 25922
[17] = E. coli D22 (hyper-permeable), MHB, read-out: Minimum Inhibitory Concentration, E. coli D22
[18] = E. coli 901C (hyper-permeable), MHB
[19] = ATCC19606, MHB, read-out: Minimum Inhibitory Concentration, A. baumannii ATCC 19606

| SMILES | MIC [1, 13] [µg/mL] | MIC [2] [µg/mL] | MIC [3, 14] [µg/mL] | MIC [4] [µg/mL] | MIC [5] [µg/mL] | MIC [6, 15] [µg/mL] | MIC [7, 16] [µg/mL] | MIC [8] [µg/mL] | MIC [9, 17] [µg/mL] | MIC [10, 18] [µg/mL] | MIC [11, 19] [µg/mL] | MIC [12] [µg/mL] | MIC ([1]; AG100, read-out: Minimum Inhibitory Concentration, E. coli AG100) [µg/mL] | MIC ([3]; ATCC35151, read-out: Minimum Inhibitory Concentration, P. aeruginosa ATCC 35151) [µg/mL] | MIC ([6]; ATCC27853, read-out: Minimum Inhibitory Concentration, P. aeruginosa ATCC 27853) [µg/mL] | MIC ([7]; ATCC25922, read-out: Minimum Inhibitory Concentration, E. coli 25922) [µg/mL] | MIC ([9]; D22, read-out: Minimum Inhibitory Concentration, E. coli D22) [µg/mL] | MIC ([10]; 901C) [µg/mL] | MIC ([11]; ATCC19606, read-out: Minimum Inhibitory Concentration, A. baumannii ATCC 19606) [µg/mL] |
| --- | --- | --- | --- | --- | --- | --- | --- | --- | --- | --- | --- | --- | --- | --- | --- | --- | --- | --- | --- |
| CCN1CCN(C(=O)NC(C(=O)N[C@H]2Cc3cccc(C(=O)O)c3OB2O)c2ccc(O)c(NS(C)(=O)=O)c2)C(=O)C1=O (stereo partly drawn) [Example 22, (3R)-3-(2-(4-ethyl-2,3-dioxopiperazine-1-carboxamido)-2-(4-hydroxy-3-(methylsulfonamido)phenyl)acetamido)-2-hydroxy-3,4-dihydro-2H-benzo[e][1,2]oxaborinine-8-carboxylic acid] | 32 to 64 (≈ 51.8 to 104 µM) | 32 to 64 (≈ 51.8 to 104 µM) | 0.5 to 1 (≈ 0.81 to 1.62 µM) | 32 to 64 (≈ 51.8 to 104 µM) | 8 to 16 (≈ 13 to 25.9 µM) | > 128 | 32 to 64 (≈ 51.8 to 104 µM) | > 128 | 2 to 4 (≈ 3.24 to 6.48 µM) | < 0.25 | > 128 | 2 to 4 (≈ 3.24 to 6.48 µM) | – | – | – | – | – | – | – |
| NCCN1CCN(C(=O)NC(C(=O)N[C@H]2Cc3ccc(F)c(C(=O)O)c3OB2O)c2nc(N)sc2F)C(=O)C1=O (stereo partly drawn) [Example 24, (3R)-3-(2-(2-amino-5-fluorothiazol-4-yl)-2-(4-(2-aminoethyl)-2,3-dioxopiperazine-1-carboxamido)acetamido)-7-fluoro-2-hydroxy-3,4-dihydro-2H-benzo[e][1,2]oxaborinine-8-carboxylic acid] | 32 to 64 (≈ 55 to 110 µM) | 32 to 64 (≈ 55 to 110 µM) | 2 to 4 (≈ 3.44 to 6.88 µM) | 32 to 64 (≈ 55 to 110 µM) | 32 to 64 (≈ 55 to 110 µM) | > 128 | 32 to 64 (≈ 55 to 110 µM) | > 128 | 8 to 16 (≈ 13.8 to 27.5 µM) | 2 to 4 (≈ 3.44 to 6.88 µM) | > 128 | 8 to 16 (≈ 13.8 to 27.5 µM) | – | – | – | – | – | – | – |
| CCN1CCN(C(=O)NC(C(=O)N[C@H]2Cc3cccc(C(=O)O)c3OB2O)c2ccc(O)c(N)c2)C(=O)C1=O (stereo partly drawn) [Example 29, (3R)-3-(2-(3-amino-4-hydroxyphenyl)-2-(4-ethyl-2,3-dioxopiperazine-1-carboxamido)acetamido)-2-hydroxy-3,4-dihydro-2H-benzo[e][1,2]oxaborinine-8-carboxylic acid] | 32 to 64 (≈ 59.3 to 119 µM) | 32 to 64 (≈ 59.3 to 119 µM) | 0.5 to 1 (≈ 0.927 to 1.85 µM) | 32 to 64 (≈ 59.3 to 119 µM) | 8 to 16 (≈ 14.8 to 29.7 µM) | > 128 | 32 to 64 (≈ 59.3 to 119 µM) | > 128 | 2 to 4 (≈ 3.71 to 7.42 µM) | 0.5 to 1 (≈ 0.927 to 1.85 µM) | > 128 | 2 to 4 (≈ 3.71 to 7.42 µM) | – | – | – | – | – | – | – |
| CCN1CCN(C(=O)NC(C(=O)N[C@H]2Cc3cccc(C(=O)O)c3OB2O)c2ccc(O)c(NS(N)(=O)=O)c2)C(=O)C1=O (stereo partly drawn) [Example 30, (3R)-3-(2-(4-ethyl-2,3-dioxopiperazine-1-carboxamido)-2-(4-hydroxy-3-(sulfamoylamino)phenyl)acetamido)-2-hydroxy-3,4-dihydro-2H-benzo[e][1,2]oxaborinine-8-carboxylic acid] | 32 to 64 (≈ 51.7 to 103 µM) | 32 to 64 (≈ 51.7 to 103 µM) | 0.5 to 1 (≈ 0.809 to 1.62 µM) | 32 to 64 (≈ 51.7 to 103 µM) | 8 to 16 (≈ 12.9 to 25.9 µM) | > 128 | 8 to 16 (≈ 12.9 to 25.9 µM) | > 128 | 2 to 4 (≈ 3.23 to 6.47 µM) | 0.5 to 1 (≈ 0.809 to 1.62 µM) | > 128 | 2 to 4 (≈ 3.23 to 6.47 µM) | – | – | – | – | – | – | – |
| CCN1CCN(C(=O)NC(C(=O)N[C@H]2Cc3cccc(C(=O)O)c3OB2O)c2ccc(C(=O)O)c(F)c2)C(=O)C1=O (stereo partly drawn) [Example 31, (3R)-3-(2-(4-carboxy-3-fluorophenyl)-2-(4-ethyl-2,3-dioxopiperazine-1-carboxamido)acetamido)-2-hydroxy-3,4-dihydro-2H-benzo[e][1,2]oxaborinine-8-carboxylic acid] | 32 to 64 (≈ 56.1 to 112 µM) | 32 to 64 (≈ 56.1 to 112 µM) | < 0.25 | > 128 | 8 to 16 (≈ 14 to 28.1 µM) | 32 to 64 (≈ 56.1 to 112 µM) | 32 to 64 (≈ 56.1 to 112 µM) | > 128 | 2 to 4 (≈ 3.51 to 7.01 µM) | < 0.25 | > 128 | 2 to 4 (≈ 3.51 to 7.01 µM) | – | – | – | – | – | – | – |
| N[C@@H](C(=O)N[C@H]1Cc2ccc(F)c(C(=O)O)c2OB1O)c1ccc(OS(=O)(=O)F)cc1 [Example 32, (R)-3-((R)-2-amino-2-(4-((fluorosulfonyl)oxy)phenyl)acetamido)-7-fluoro-2-hydroxy-3,4-dihydro-2H-benzo[e][1,2]oxaborinine-8-carboxylic acid] | – | > 128 | – | > 128 | > 128 | – | – | > 128 | – | – | – | > 128 | > 128 | > 128 | > 128 | > 128 | > 128 | > 128 | > 128 |
| NCCCN1CCN(C(=O)NC(C(=O)N[C@H]2Cc3cccc(C(=O)O)c3OB2O)c2ccc(C(=O)O)cc2)C(=O)C1=O (stereo partly drawn) [Example 39, (3R)-3-(2-(4-(3-aminopropyl)-2,3-dioxopiperazine-1-carboxamido)-2-(4-carboxyphenyl)acetamido)-2-hydroxy-3,4-dihydro-2H-benzo[e][1,2]oxaborinine-8-carboxylic acid] | 8 to 16 (≈ 13.8 to 27.5 µM) | 32 to 64 (≈ 55 to 110 µM) | < 0.25 | > 128 | 8 to 16 (≈ 13.8 to 27.5 µM) | 8 to 16 (≈ 13.8 to 27.5 µM) | 8 to 16 (≈ 13.8 to 27.5 µM) | > 128 | 2 to 4 (≈ 3.44 to 6.88 µM) | 0.5 to 1 (≈ 0.86 to 1.72 µM) | > 128 | 8 to 16 (≈ 13.8 to 27.5 µM) | – | – | – | – | – | – | – |
| NS(=O)(=O)NC(C(=O)N[C@H]1Cc2ccc(F)c(C(=O)O)c2OB1O)c1ncc(O)cc1F (stereo partly drawn) [Example 43, (3R)-7-fluoro-3-(2-(3-fluoro-5-hydroxypyridin-2-yl)-2-(sulfamoylamino)acetamido)-2-hydroxy-3,4-dihydro-2H-benzo[e][1,2]oxaborinine-8-carboxylic acid] | > 128 | > 128 | 2 to 4 (≈ 4.24 to 8.47 µM) | > 128 | > 128 | > 128 | > 128 | > 128 | > 128 | > 128 | > 128 | > 128 | – | – | – | – | – | – | – |
| NS(=O)(=O)NC(C(=O)N[C@H]1Cc2cccc(C(=O)O)c2OB1O)c1ccc(C(=O)O)c(F)c1 (stereo partly drawn) [Example 44, (3R)-3-(2-(4-carboxy-3-fluorophenyl)-2-(sulfamoylamino)acetamido)-2-hydroxy-3,4-dihydro-2H-benzo[e][1,2]oxaborinine-8-carboxylic acid] | > 128 | > 128 | 32 to 64 (≈ 66.5 to 133 µM) | > 128 | > 128 | > 128 | > 128 | > 128 | > 128 | > 128 | > 128 | > 128 | – | – | – | – | – | – | – |
